Results as given in PubChem BioAssay AID588363 (Broad Institute, 2011).
Active and inactive are the calls of the source.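 How the source made its calls: active means compounds lowering polarization with half-effect concentration at most ten times their top valid dose; inconclusive means flat fit with 30 to 70 percent drop, or poor fit; inactive means the rest.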

Target: KSHV LANA C-terminal domain (residues 932-1162), DNA binding
Test: inhibitors of C-LANA binding to LBS DNA, dose response, biochemical, fluorescence polarization, MBP fusion, dry powder (AID 588363)
Details: not given

| AC50 | SMILES |
| --- | --- |
| 20.6 µM | O=C1CCCC(O)=C1N=Nc1ccc(C(=O)O)cc1 |
| 16.1 µM | COC(=O)c1ccccc1NC(=O)CCS(=O)(=O)c1ccc(Br)cc1 |
| 6.05 µM | O=C(O)c1cc(N2N=C(C(F)(F)F)/C(=C/C=C/c3ccco3)C2=O)ccc1Cl |
| 24.4 µM | O=C(O)CCNc1ccc(NCCC(=O)O)c2c1C(=O)c1ccccc1C2=O |
| 6.54 µM | CSc1ccc(/C=N/Nc2cccc(C(=O)O)c2)cc1 |
| 4.46 µM | CC(=O)c1ccc2c(c1)C1C=CCC1C(C(=O)O)N2 (configuration not stated) |
| 23.1 µM | Nc1c(C(=O)Nc2ccccc2F)sc2nc(Cc3ccccc3)cc(C(F)(F)F)c12 |
| 31.2 µM | CC1=NN(c2cccc(C(=O)O)c2)C(=O)/C1=C\C=C\c1ccco1 |

The next lines start with the compound.

| SMILES | AC50 |
| --- | --- |
| O=c1c(O)cccc2cc(O)c(O)c(O)c12 | 5.21 µM |
| CCC(=O)Oc1ccc2c(c1)O/C(=C\c1ccco1)C2=O | 16.8 µM |
| O=C(O)C1Nc2c(O)cc(Cl)c([N+](=O)[O-])c2C2C=CCC12 (configuration not stated) | 13.2 µM |
| O=C(O)C1Nc2ccc(Br)cc2C2C=CCC12 (configuration not stated) | 3.33 µM |
| O=C1/C(=C/c2ccco2)Oc2c1ccc(O)c2CN1CCCCC1 | 8.54 µM |

Same assay, conditions: at 35 µM (top of the series)

| activity change, negative = inhibition | SMILES |
| --- | --- |
| inactive | Nc1c(/C=C2\C=CC(=O)C(O)=C2)c(=O)nc2sc(CC(=O)N3CCCCC3)nn12 |
| inactive | Clc1ccc(-c2nnc3sc(-c4ccc(Br)o4)nn23)cc1 |
| inactive | CC1(C)[C@@H](O[C@H]2O[C@H](C(=O)O)[C@@H](O)[C@H](O)[C@H]2O[C@@H]2O[C@H](C(=O)O)[C@@H](O)[C@H](O)[C@H]2O)CC[C@]2(C)[C@H]3C(=O)C=C4[C@@H]5C[C@@](C)(C(=O)O)CC[C@]5(C)CC[C@@]4(C)[C@]3(C)CC[C@@H]12 |
| inactive | CN(C)S(=O)(=O)c1cc(C(=O)NC2CCSc3ccccc32)ccc1Cl (configuration not stated) |
